These results are taken from PMC6877352, “Modifying the Siderophore Triacetylfusarinine C for Molecular Imaging of Fungal Infection” (Molecular imaging and biology, 2019).

A short description of series [1]: Distribution coefficient (logD), octanol/PBS pH 7.4. The class given is physicochemical. The note with it: [^68Ga]siderophore 4 μM, octanol/PBS pH 7.4, n = 5. The method, then:
[^68Ga]siderophore (4 μM) in 500 μl phosphate-buffered saline (PBS), pH 7.4, was added to 500 μl octanol. The mixture was vortexed at 1400 rpm for 15 min and subsequently centrifuged at 2000 rcf for 2 min.

Series [2] relates to A. fumigatus wildtype (ATCC46645). Briefly: In vitro uptake assay in A. fumigatus. The note with it: iron-starvation condition, 45 min, normalized to [^68Ga]TAFC uptake from the same experiment, n = 3. It counts as cell-based, Aspergillus fumigatus. The method, then: For in vitro uptake studies, A. fumigatus wildtype (ATCC46645) was used. Fungal strain was cultured at 37 °C in Aspergillus minimal medium (AMM) containing 1 % (m/v) glucose as carbon source, 20 mM glutamine as nitrogen source, salts, and trace elements. Iron-sufficient media were prepared by adding FeSO4 to a final concentration of 30 μM. For iron-deficient conditions, supplementation of iron was omitted. Iron starvation was verified by the detection of extracellular siderophore production which is suppressed by iron supplementation.
Uptake assays were performed in either iron-deficient or iron-sufficient A. fumigatus wildtype cultures. In a 96-well MultiScreen Filter Plates HTS (1 μm glass fiber filter, Merck Millipore, Darmstadt, Germany), 180 μl of A. fumigatus suspended in iron-replete or iron-depleted medium was added. [^68Ga]siderophores (approx. 1 × 10^5 cpm, 80 nM) were incubated with either PBS pH 7.4 (total series) or blocking solution (10 μM [Fe]TAFC) (non-specific series) at RT for 45 min in quadriplicates. The incubation was interrupted by suction of the medium and the plate was washed twice with ice-cold TRIS-buffered saline (10 mM, pH 7.3). The filters were isolated and the remaining activities were measured in the gamma counter. The uptake was calculated as % uptake of total activity added; each assay was repeated three times. To normalize uptake variations between different fungal cultures, the uptake of each [^68Ga]siderophore was expressed as the ratio to [^68Ga]TAFC uptake from the same experiment. The mean values of three different assays were used to quantitatively compare the difference in uptake between the compounds.

Series [3] deals with A. terreus wildtype strain. Briefly: In vitro uptake assay in A. terreus (lacks the MirB transporter). The class given is cell-based, Aspergillus terreus. The protocol:
To confirm the specificity of uptake of TAFC derivatives by A. fumigatus via the MirB transporter, A. terreus, which lacks the MirB transporter, was used for in vitro uptake assay. A. terreus was grown in either iron-deficient or iron-sufficient cultures. Uptake studies were performed as described for A. fumigatus and expressed as % uptake of total activity added.

As for `CCCC(=O)NC1CCCN(O)C(=O)C=C(C)CCOC(=O)C(NC(=O)CCC)CCCN(O)C(=O)C=C(C)CCOC(=O)C(NC(=O)CCC)CCCN(O)C(=O)C=C(C)CCOC1=O` (centres unmarked) (68Ga complex, metal not drawn) [TBuFC, tributanoyl(FSC)], the logD (commonly the decadic logarithm of the distribution of all forms, ionised or not, between an organic phase and buffer at a given pH) in series [1] is reported as 0.34 ± 0.01. The “uptake ratio to [^68Ga]TAFC” value in series [2] was 0.86; in series [2] (listed as [^68Ga]TBuFC), “around 1”.
In the case of `C/C1=C/C(=O)N(O)CCCC(N)C(=O)OCC/C(C)=C\C(=O)N(O)CCCC(N)C(=O)OCC/C(C)=C\C(=O)N(O)CCCC(N)C(=O)OCC1` (centres unmarked) (68Ga complex, metal not drawn) [FSC, fusarinine C], the “Uptake in A. terreus in iron-replete condition” value in series [3] (iron-replete condition) is on record as 2 % of total activity added. In addition, the “Uptake in A. terreus with TAFC blocking” value in series [3] (iron-starvation condition with TAFC blocking) is reported as 28 % of total activity added. For the same compound, the “uptake in A. terreus” value in series [3] (iron-starvation condition, 45 min, n = 3) is on record as > 30 % of total activity added. The “uptake ratio to [^68Ga]TAFC” value is 1.37 in series [2] and approximately 1.4 in series [2] (listed as [^68Ga]FSC).
